From patent US9790169B2, “IDO inhibitors” (BRISTOL-MYERS SQUIBB COMPANY, priority 2015, dated 2017)

What follows are compounds tested against human IDO1 (Homo sapiens, UniProt P14902) (assay: Assessment of human IDO-1 inhibitory activity in Hela cells (Interferon-gamma stimulated HeLa cells, Ehrlich reagent, absorbance 490 nm)). Conditions: Hela Human IDO-1 cellular assay.
Type: cell-based
Set-up: endogenous in cells; host or cells: HeLa cells stimulated with interferon-gamma
Method in brief: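 IDO activity induced by 18 h IFN-γ (human 10 ng/ml or murine 5 ng/ml, final) after 1 h compound pre-treatment of HeLa cells at 37 °C. Supernatant kynurenine detected via Ehrlich reagent absorbance at 490 nm following 3% TCA at 50 °C; IC50 set against no-IFN-γ and untreated-stimulated controls.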

human IDO1, sequence (P14902 whole entry): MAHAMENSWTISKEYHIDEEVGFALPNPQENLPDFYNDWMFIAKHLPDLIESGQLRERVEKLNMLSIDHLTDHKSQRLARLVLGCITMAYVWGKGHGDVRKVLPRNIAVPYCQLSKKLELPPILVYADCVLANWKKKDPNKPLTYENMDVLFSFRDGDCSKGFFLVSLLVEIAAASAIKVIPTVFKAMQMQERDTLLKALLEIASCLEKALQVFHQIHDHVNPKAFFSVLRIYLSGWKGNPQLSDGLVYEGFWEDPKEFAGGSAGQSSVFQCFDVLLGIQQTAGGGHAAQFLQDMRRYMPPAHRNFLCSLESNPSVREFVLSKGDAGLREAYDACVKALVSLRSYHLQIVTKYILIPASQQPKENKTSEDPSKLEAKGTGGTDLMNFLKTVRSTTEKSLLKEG

`CCOc1ncc(Nc2cc([C@H](CC)CC(N)=O)ccc2N(CC)C2CCOCC2)cn1` [Example 1332, (R)-3-(3-((2-Ethoxypyrimidin-5-yl)amino)-4-(ethyl(tetrahydro-2H-pyran-4-yl)amino)phenyl)pentanamide] and `CCOc1ncc(Nc2cc([C@H](CC)CC(C)(C)O)ccc2N(CC)C2CCOCC2)cn1` (single isomer, unassigned) [Example 1368] cannot be ordered by IC50: > 50 nM for the first, > 50 nM for the second.

`CCCN(c1ccc(C(COC)CC(=O)O)cc1Nc1ccc(F)cc1)C1CCS(=O)(=O)CC1` (single isomer, unassigned) [Example 184, 3-(4-((1,1-dioxidotetrahydro-2H-thiopyran-4-yl)(propyl)amino)-3-((4-fluorophenyl)amino)phenyl)-4-methoxybutanoic acid] and `CCN(c1ccc(C(COC)CC(=O)O)cc1Nc1ccc(F)cc1)C1CCS(=O)(=O)CC1` (single isomer, unassigned) [Example 172, 3-(4-((1,1-dioxidotetrahydro-2H-thiopyran-4-yl)(ethyl)amino)-3-((4-fluorophenyl)amino)phenyl)-4-methoxybutanoic acid] cannot be ordered by IC50: < 5 nM for the first, < 50 nM for the second.

`CC[C@@H](CC(=O)O)c1ccc(N(CC2CC2)CC(C)(C)O)c(Nc2ccc(F)cc2)c1` (single isomer, unassigned) [Example 269] and `CCC(CC(=O)O)c1ccc(N2CCC(C)CC2)c(Nc2ccc(C#N)cc2)c1` (single isomer, unassigned) [Example 41 Enantiomer 1, 3-(3-((4-Cyanophenyl)amino)-4-(4-methylpiperidin-1-yl)phenyl)pentanoic acid] cannot be ordered by IC50: < 50 nM for the first, < 50 nM for the second.

`CCOc1ccc(Nc2cc(C(C)CC(=O)O)ccc2N(CC)C2CCOCC2)nn1` (single isomer, unassigned) [Example 631, 3-(3-((6-ethoxypyridazin-3-yl)amino)-4-(ethyl (tetrahydro-2H-pyran-4-yl)amino)phenyl)butanoic acid] and `CC[C@H](CC(=O)O)c1ccc(N(CC)C2CCOCC2)c(Nc2ccc(OC)cn2)c1` (single isomer, unassigned) [Example 505] cannot be ordered by IC50: < 50 nM for the first, < 50 nM for the second.

Compared with `CCN(c1ccc([C@H](CC(=O)O)C(F)(F)F)cc1NC(=O)Nc1ccc(Cl)cc1F)C1CCOCC1` (single isomer, unassigned) [Example 1267], `CCN(c1ccc([C@@H](COC)CC(=O)O)cc1NC(=O)Nc1ccc(F)cc1F)C1CCOCC1` (single isomer, unassigned) [Example 431] is higher in IC50: < 5 nM for the first, > 50 nM for the second. The first is the more potent here.

`COCC(CC(=O)O)c1cc(F)c(N(CC(C)C)CC(C)C)c(Nc2ccc3c(c2)OC(F)(F)O3)c1` (single isomer, unassigned) [Example 924, 3-(3-((2,2-difluorobenzo[d] [1,3]dioxol-5-yl)amino)-4-(diisobutylamino)-5-fluorophenyl)-4-methoxybutanoic acid] and `CC(CC(=O)O)c1ccc(N(CC(C)(C)O)C2CCCCC2)c(Nc2ccc3c(c2)OC(F)(F)O3)c1` (single isomer, unassigned) [Example 49, 3-(4-(cyclohexyl(2-hydroxy-2-methylpropyl)amino)-3-((2,2-difluorobenzo[d][1,3]dioxol-5-yl)amino)phenyl)butanoic acid] cannot be ordered by IC50: < 50 nM for the first, < 50 nM for the second.

`CCOc1ncc(Nc2cc([C@H](CC)CC(=O)Nc3ncco3)ccc2N(CC)C2CCOCC2)cn1` [Example 1346, (R)-3-(3-((2-Ethoxypyrimidin-5-yl)amino)-4-(ethyl(tetrahydro-2H-pyran-4-yl)amino)phenyl)-N-(oxazol-2-yl)pentanamide] and `CCOc1ncc(Nc2cc(C(CC)CC(=O)O)ccc2N(CC)C2CCOC2)cn1` (single isomer, unassigned) [Example 945 D1, 3-(3-((2-Ethoxypyrimidin-5-yl)amino)-4-(ethyl(tetrahydrofuran-3-yl)amino)phenyl)pentanoic acid] cannot be ordered by IC50: < 50 nM for the first, < 50 nM for the second.

`CCC(CC(=O)O)c1ccc(N2C[C@@H]3C[C@H]2CN3C(=O)OC(C)(C)C)c(Nc2ccccc2)c1` (single isomer, unassigned) [Example 444] and `CCOc1ncc(Nc2cc(C(CC)CC(=O)O)ccc2N2CCC(c3ccccc3)CC2)cn1` (single isomer, unassigned) [Example 47 Enantiomer 1, 3-(3-((2-Ethoxypyrimidin-5-yl)amino)-4-(4-phenylpiperidin-1-yl)phenyl)pentanoic acid] cannot be ordered by IC50: < 5 nM for the first, < 5 nM for the second.

`COCC(CC(=O)O)c1ccc(N2CCOC[C@H]2C(C)C)c(Nc2ccc(Cl)cc2)c1` (single isomer, unassigned) [Example 913] and `COCC(CC(=O)O)c1ccc(N2CCOC[C@H]2C(C)C)c(Nc2ccc(C#N)cc2)c1` (single isomer, unassigned) [Example 909] cannot be ordered by IC50: < 5 nM for the first, < 50 nM for the second.

`CCCN(c1ccc(C(C)(C)CC(=O)O)cc1Nc1cnc(OCC)nc1)C1CCOCC1` [Example 24, 3-(3-((2-ethoxypyrimidin-5-yl)amino)-4-(propyl(tetrahydro-2H-pyran-4-yl)amino)phenyl)-3-methylbutanoic acid] and `CCCN(c1ccc(C(C)(C)CC(=O)O)cc1Nc1ccc(Cl)cc1)C1CCOCC1` [Example 21, 3-(3-((4-Chlorophenyl)amino)-4-(propyl(tetrahydro-2H-pyran-4-yl)amino)phenyl)-3-methylbutanoic acid] cannot be ordered by IC50: < 50 nM for the first, < 5 nM for the second.

`COCC(CC(=O)O)c1ccc(N2CCOC(C)(C)C2)c(Nc2ccc(Cl)cc2)c1` (single isomer, unassigned) [Example 1315 E1, 3-(3-((4-Chlorophenyl)amino)-4-(2,2-dimethylmorpholino)phenyl)-4-methoxybutanoic acid] and `COCC(CC(=O)O)c1ccc(N2CCOC[C@@H]2C(C)C)c(Nc2ccc(C#N)cc2)c1` (single isomer, unassigned) [Example 933] cannot be ordered by IC50: > 50 nM for the first, > 50 nM for the second.

Compared with `CCN(c1ccc([C@@H](COC)CC(=O)O)cc1Nc1ncc(F)cn1)C1CCOCC1` (single isomer, unassigned) [Example 359], `CCc1ncc(Nc2cc([C@H](CC)CC(=O)O)ccc2N(CC)C2CCOCC2)cn1` (single isomer, unassigned) [Example 1364] is lower in IC50: > 50 nM for the first, < 5 nM for the second. The second is the more potent here.

`CCC(CC(=O)O)c1cc(F)c(N(CC)C2CCOCC2)c(Nc2ccc(Cl)cc2)c1` (single isomer, unassigned) [Example 133, 3-(3-((4-Chlorophenyl)amino)-4-(ethyl(tetrahydro-2H-pyran-4-yl)amino)-5-fluorophenyl)pentanoic acid] and `CC[C@H](CC(=O)O)c1ccc(N(CC)C2CCOCC2)c(Nc2ccc(Cl)cn2)c1` (single isomer, unassigned) [Example 503] cannot be ordered by IC50: < 5 nM for the first, < 5 nM for the second.

`CCC(CC(=O)O)c1ccc(N(C)C2CCOCC2)c(Nc2cnc(OC)nc2)c1` (single isomer, unassigned) [Example 868, 3-(3-((2-methoxy-pyrimidin-5-yl)amino)-4-(methyl (tetrahydro-2H-pyran-4-yl)amino)phenyl) pentanoic acid] and `CCN(c1ccc([C@@H](CC(=O)O)C(F)(F)F)cc1Nc1cnc(OC)nc1)C1CCOCC1` (single isomer, unassigned) [Example 601] cannot be ordered by IC50: < 50 nM for the first, < 5 nM for the second.

`CCN(c1cc(F)c([C@@H](COC)CC(=O)O)cc1Nc1ccc(C#N)cc1)C1CCOCC1` (single isomer, unassigned) [Example 843, 3-(5-((4-Cyanophenyl)amino)-4-(ethyl(tetrahydro-2H-pyran-4-yl)amino)-2-fluorophenyl)-4-methoxybutanoic acid] and `CCN(c1ccc([C@@H](COC(C)C)CC(=O)O)cc1Nc1ccc(C#N)cc1)C1CCOCC1` (single isomer, unassigned) [Example 324] cannot be ordered by IC50: < 5 nM for the first, < 50 nM for the second.

`CCN(c1cc(F)c([C@@H](COC)CC(=O)O)cc1NC(=O)Nc1ccc(Cl)cc1F)C1CCOCC1` (single isomer, unassigned) [Example 848, 3-(5-(3-(4-Chloro-2-fluorophenyl)ureido)-4-(ethyl(tetrahydro-2H-pyran-4-yl)amino)-2-fluorophenyl)-4-methoxybutanoic acid] and `COCC(CC(=O)O)c1ccc(N(C)C2CCOCC2)c(Nc2ccc(C#N)cc2F)c1` (single isomer, unassigned) [Example 876, 3-(3-((4-cyano-2-fluorophenyl)amino)-4-(methyl(tetrahydro-2H-pyran-4-yl)amino)phenyl)-4-methoxybutanoic acid] cannot be ordered by IC50: < 5 nM for the first, < 50 nM for the second.

First: COCC(CC(=O)O)c1ccc(N2CCC(c3ccccc3)CC2)c(NC(=O)Nc2ccc(Cl)cc2F)c1 (single isomer, unassigned) [Example 1357 E2, 3-(3-(3-(4-Chloro-2-fluorophenyl)ureido)-4-(4-phenylpiperidin-1-yl)phenyl)-4-methoxybutanoic acid]
Second: CCC1COCCN1c1ccc([C@H](COC)CC(=O)O)cc1Nc1ccc(C#N)c(F)c1 (single isomer, unassigned) [Example 1288]
The IC50 of the first is lower: < 50 nM for the first, > 50 nM for the second.

`CCC1COCCN1c1ccc([C@H](COC)CC(=O)O)cc1Nc1ccc(F)cn1` (single isomer, unassigned) [Example 1294] and `CCOc1ncc(Nc2cc(C(COC)CC(=O)O)ccc2N2CCOC[C@H]2C(C)C)cn1` (single isomer, unassigned) [Example 914] cannot be ordered by IC50: > 50 nM for the first, > 50 nM for the second.

`CCCN(c1ccc([C@@H](CC)CC(=O)O)cc1NC(=O)Nc1ccc(C#N)cc1)C1CCOCC1` (single isomer, unassigned) [Example 545] and `CCN(c1ccc(C(C)(C)CC(=O)O)cc1Nc1ccc(C#N)cc1)C1CCC(C)(O)CC1` (stereo not drawn) [Example 4, 3-(3-((4-cyanophenyl)amino)-4-(ethyl(4-hydroxy-4-methylcyclohexyl)amino)phenyl)-3-methylbutanoic acid] cannot be ordered by IC50: < 50 nM for the first, < 50 nM for the second.

For `CCC(CC(=O)O)c1ccc(N2CCC(C)CC2)c(Nc2cnc(OC)nc2)c1` (single isomer, unassigned) [Example 42, 3-(3-((2-methoxypyrimidin-5-yl)amino)-4-(4-methylpiperidin-1-yl)phenyl)pentanoic acid], the IC50 was > 50 nM.
